The source of these data is US9283224B2, “Substituted pyrimidinyl-pyrroles active as kinase inhibitors” (NERVIANO MEDICAL SCIENCES S.R.L., priority 2012, dated 2016).

Assay [1] relates to JAK2 dependent human megakaryoblastic leukemia cell line SET-2. The assay can be described thus: Cell proliferation assay (CellTiter-Glo, 72 hours), SET-2. Format: cell-based. Conditions: for IC50: Homo sapiens, read-out: SET-2 IC50; for Ratio K-562 (IC50)/SET-2 (IC50): selectivity for JAK2 dependent SET-2 vs JAK2 independent K-562 cell line. The procedure: (§1) the JAK2 dependent human megakaryoblastic leukemia cell line SET-2 (DSMZ, Braunschweig GERMANY), and JAK2 independent human chronic myelogenous leukaemia cell line K562 (ECACC, Wiltshire, UK) were cultured in RPMI-1640 medium-Glutamax (Gibco BRL, Gaithesburg, Md., USA), supplemented with 10% fetal bovine serum (FBS) at 37° C. and 5% CO2.
(§2) Approximately 5×10^3 cells were plated into 384 microtiter plate wells in 50 μL of growth media with different concentrations of inhibitors. The cells were incubated at 37° C. and 5% CO2 for 72 hours, than the plates were processed using CellTiter-Glo assay (Promega, Madison, Wis., USA) following the manufacturer's instruction. Briefly 25 μL/well reagent solution are added to each wells and after 5 minutes shacking micro-plates are read by Envision luminometer (PerkinElmer, Waltham, Mass., USA).
(§3) Data are analyzed by Symix Assay Explorer software (Symix Technologies Inc.) that provides sigmoidal fitting algorithm of the 8 points dilutions curves for […] determination.

Another assay addresses T1, JAK2 kinase domain (Homo sapiens, UniProt O60674).
T1 construct: commercially available JAK2 kinase domain (Invitrogen, Eugene, Oreg.); purchased Invitrogen, Eugene, Oreg
Put plainly: Biochemical assay for inhibitors of JAK2 kinase activity (33P-γ-ATP, dowex resin). Conditions: 1 nM enzyme, 60 μM ATP, 60 minutes at room temperature. The procedure:
Specific JAK2, JAK1 or JAK3 peptide substrates are trans-phosphorylated by JAK kinases in the presence of ATP traced with 33P-γ-ATP. At the end of the phosphorylation reaction, the unreacted ATP, cold and radioactive, is captured by an excess of dowex ion exchange resin that eventually settles by gravity to the bottom of the reaction plate. The supernatant is subsequently withdrawn and transferred into a counting plate that is then evaluated by β-counting.
500 g of wet resin (SIGMA, custom prepared resin DOWEX 1×8 200-400 mesh, 2.5 Kg) is weighed out and diluted 2 to 1 in 150 mM sodium formate, pH 3.00. The resin is allowed to settle overnight and then the supernatant is discarded. After three washes as above over a couple of days, the resin is allowed to settle and two volumes (with respect to the resin volume) of 150 mM sodium formate buffer are added.
Kinase buffer was composed of 50 mM HEPES pH 7.5 containing 10 mM MgCl2, 2.5 mM DTT, 10 μM Na3VO4 and 0.2 mg/mL BSA.
The peptidic substrate was purchased from American Peptide Company (Sunnyvale, Calif.).
An automated station for serial dilutions (Biomek FX, Beckman) is used for producing 1:3 dilutions in 100% DMSO, from line A1 to A10, and for all the compounds in the column.
At the start of the run, the robot aspirates 5 μL of ATP mix, makes an air gap inside the tips (3 μl) and aspirates 5 μL of JAK2 mix. The following dispensation into the plates plus 3 cycles of mixing, done by the robot itself, starts the kinase reaction. At this point, the correct concentrations are restored for all the reagents. The robot incubates the plates for 60 minutes at room temperature, and then stops the reaction by pipetting 60 μL of dowex resin suspension into the reaction mix. In order to avoid tip clogging, wide bore tips are used to dispense the resin suspension. Three cycles of mixing are done immediately after the addition of the resin. Another mixing cycle is performed after all the plates are stopped, this time using normal tips: the plates are then allowed to rest for about one hour in order to allow resin sedimentation. At this point, 27 μL of the supernatant are transferred into 384-Optiplates (Perkin-Elmer), with 50 μL of Microscint 40 (Perkin-Elmer); after 5 min of orbital shaking the plates are read on a Perkin-Elmer Top Count radioactivity counter.
Data are analyzed by an internally customized version of the SW package “Assay Explorer” that provides sigmoidal fitting of the ten-dilutions curves for IC50 determination in the secondary assays/hit confirmation routines.

In assay [2] the test system is JAK2 independent human chronic myelogenous leukaemia cell line K562. Put plainly: Cell proliferation assay (CellTiter-Glo, 72 hours), K562. Format: cell-based. The conditions noted are these: K562 cells, read-out: K-562 IC50. The procedure: as §1, §2, §3

Where two headings read alike, the source gives them in different places.

T1 sequence (O60674 849-1124 limits assumed): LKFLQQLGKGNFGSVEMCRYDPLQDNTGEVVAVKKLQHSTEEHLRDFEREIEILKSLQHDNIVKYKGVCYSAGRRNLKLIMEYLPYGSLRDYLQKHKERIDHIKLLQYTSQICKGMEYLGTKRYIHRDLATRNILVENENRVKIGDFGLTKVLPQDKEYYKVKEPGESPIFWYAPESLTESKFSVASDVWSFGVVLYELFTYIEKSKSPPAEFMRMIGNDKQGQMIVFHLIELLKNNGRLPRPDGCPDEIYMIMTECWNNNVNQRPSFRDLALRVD

`NC(=O)c1cc(-c2ccnc(N)n2)[nH]c1-c1cc(C(F)(F)F)ccc1Cl` [Cmpd. 1, 5-(2-Aminopyrimidin-4-yl)-2-[2-chloro-5-(trifluoromethyl)phenyl]-1H-pyrrole-3-carboxamide]: the IC50 in assay [1] (SET-2 cells, 72 hours) stood at 570 nM; against JAK2 kinase domain, 8 nM; in assay [2], 7.5 µM. In assay [1], the “Ratio K-562 (IC50)/SET-2 (IC50)” value is 13.
Taken in the same sequence, the figures for `NC(=O)c1cc(-c2ccnc(N)n2)[nH]c1-c1cc(Cl)ccc1Cl` [Cmpd. 2, 5-(2-Aminopyrimidin-4-yl)-2-(2,5-dichlorophenyl)-1H-pyrrole-3-carboxamide] were 700 nM, 12 nM, 6.86 µM and 9.8.
For the molecule `CCc1ccc(Cl)cc1-c1[nH]c(-c2ccnc(N)n2)cc1C(N)=O` [Cmpd. 5, 5-(2-Aminopyrimidin-4-yl)-2-(5-chloro-2-ethylphenyl)-1H-pyrrole-3-carboxamide], the IC50 came to 210 nM in assay [1] (SET-2, 72 h) and 5.32 µM in assay [2].
In the case of `CCc1ccc(C(F)(F)F)cc1-c1[nH]c(-c2ccnc(N)n2)cc1C(N)=O` [Cmpd. 16, 5-(2-Aminopyrimidin-4-yl)-2-[2-ethyl-5-(trifluoromethyl)phenyl]-1H-pyrrole-3-carboxamide], the IC50 was 390 nM in assay [1] (SET-2 cells, 72 hours); 2 nM against JAK2 kinase domain; 3.68 µM in assay [2]. In addition, the “Ratio K-562 (IC50)/SET-2 (IC50)” value in assay [1] stood at 9.43.
Take `CCc1ccc(Cl)cc1-c1[nH]c(-c2ccnc(N)n2)cc1C(=O)NC` [Cmpd. 35, 5-(2-Aminopyrimidin-4-yl)-2-(5-chloro-2-ethylphenyl)-N-methyl-1H-pyrrole-3-carboxamide]: the IC50 is 490 nM in assay [1] (SET-2 cells, 72 hours); 9 nM against JAK2 kinase domain; over 10 µM in assay [2]. For the same molecule, the “Ratio K-562 (IC50)/SET-2 (IC50)” value in assay [1] is given as over 20.
Turning to `CCNC(=O)c1cc(-c2ccnc(N)n2)[nH]c1-c1cc(Cl)ccc1CC` [Cmpd. 36, 5-(2-Aminopyrimidin-4-yl)-2-(5-chloro-2-ethylphenyl)-N-ethyl-1H-pyrrole-3-carboxamide], the IC50 in assay [1] (SET-2 cells, 72 hours) was 610 nM; on JAK2 kinase domain it was 13 nM; in assay [2], over 10 µM. The “Ratio K-562 (IC50)/SET-2 (IC50)” value in assay [1] was over 16.
On to `CNC(=O)c1cc(-c2ccnc(N)n2)[nH]c1-c1cc(C(F)(F)F)ccc1Cl` [Cmpd. 39, 5-(2-Aminopyrimidin-4-yl)-2-[2-chloro-5-(trifluoromethyl)phenyl]-N-methyl-1H-pyrrole-3-carboxamide], for which the IC50 in assay [1] (SET-2 cells, 72 hours) is 630 nM; in assay [2] it was over 10 µM. Also, in assay [1], the “Ratio K-562 (IC50)/SET-2 (IC50)” value was over 16.
Turning to `CNc1nccc(-c2cc(C(N)=O)c(-c3cc(Cl)ccc3C)[nH]2)n1` [Cmpd. 42, 2-(5-Chloro-2-methylphenyl)-5-[2-(methylamino)pyrimidin-4-yl]-1H-pyrrole-3-carboxamide], the IC50 in assay [2] is over 10 µM.
As for `CCc1ccc(C(F)(F)F)cc1-c1[nH]c(-c2ccnc(N)n2)cc1C(=O)NC` [Cmpd. 51, 5-(2-Aminopyrimidin-4-yl)-2-[2-ethyl-5-(trifluoromethyl)phenyl]-N-methyl-1H-pyrrole-3-carboxamide], the IC50 was 310 nM in assay [1] (SET-2 cells, 72 hours); 2 nM against JAK2 kinase domain; over 10 µM in assay [2]. Also, the “Ratio K-562 (IC50)/SET-2 (IC50)” value in assay [1] is reported as over 20.
Regarding `Cc1ccc(Cl)cc1-c1[nH]c(-c2ccnc(N)n2)cc1C(N)=O` [Ref. cmpd. (F25), 5-(2-amino-pyrimidin-4-yl)-2-(5-chloro-2-methyl-phenyl)-1H-pyrrole-3-carboxamide, reference compound], the IC50 in assay [1] (SET-2, 72 h) turned out to be 430 nM; in assay [2], 2 µM.
